Structures can show the parent of a compound that is named as a salt. Where two headings read alike, the source gives them in different places.
Key:
[1] = Determination of pharmacokinetic parameters following intravenous and oral administration (rats); assay type: in vivo, male Wistar rats; conditions: intravenous administration in rats
Protocol: B-6. Determination of Pharmacokinetic Parameters Following Intravenous and Oral Administration
The pharmacokinetic parameters of the compounds according to the invention are determined in male CD-1 mice, male Wistar rats and female beagles. Intravenous administration in the case of mice and rats is carried out by means of a species-specific plasma/DMSO formulation, and in the case of dogs by means of a water/PEG400/ethanol formulation. In all species, oral administration of the dissolved substance is performed via gavage, based on a water/PEG400/ethanol formulation. The taking of blood from rats is simplified by inserting a silicone catheter into the right Vena jugularis externa prior to substance administration. The operation is carried out at least one day prior to the experiment with […] and administration of an analgesic (atropin/Rimadyl (3/1) 0.1 ml s.c.). The blood is taken (generally more than 10 time points) within a time window including terminal time points of at least 24 to a maximum of 72 hours after substance administration. When the blood is taken, it is passed into heparinised tubes. Then the blood plasma is obtained by centrifugation and is optionally stored at −20° C. until further processing.
An internal standard (which may also be a chemically unrelated substance) is added to the samples of the compounds according to the invention, calibration samples and qualifiers, and there follows protein precipitation by means of excess acetone. Addition of a buffer solution matched to the LC conditions, and subsequent vortexing, is followed by centrifugation at 1000 g. The supernatant is analysed by LC-MS/MS using C18 reversed-phase columns and variable mobile phase mixtures. The substances are quantified via the peak heights or areas from extracted ion chromatograms of specific selected ion monitoring experiments.
The plasma concentration/time plots determined are used to calculate the pharmacokinetic parameters such as AUC, Cmax, t1/2 (terminal half life), F (bioavailability), MRT (mean residence time) and CL (clearance), using a validated pharmacokinetic calculation program.
Since the substance quantification is carried out in plasma, it is necessary to determine the blood/plasma distribution of the substance in order to be able to adjust the pharmacokinetic parameters correspondingly. For this purpose, a defined amount of substance is incubated in heparinized whole blood of the species in question in a rocking roller mixture for 20 min. After centrifugation at 1000 g, the plasma concentration is measured (by means of LC-MS/MS; see above) and determined by calculating the ratio of the Cblood/Cplasma value.

[2] = molecular target: T1, recombinant guanylate cyclase reporter cell line (Rattus norvegicus, UniProt P19686+P20595); assay: Action on recombinant guanylate cyclase reporter cell line; assay type: cell-based; conditions: in some cases mean values from individual determinations
T1 construct: expressed in transfected cells; host or cells: recombinant reporter cell line
T1 sequence (P19686 1-690): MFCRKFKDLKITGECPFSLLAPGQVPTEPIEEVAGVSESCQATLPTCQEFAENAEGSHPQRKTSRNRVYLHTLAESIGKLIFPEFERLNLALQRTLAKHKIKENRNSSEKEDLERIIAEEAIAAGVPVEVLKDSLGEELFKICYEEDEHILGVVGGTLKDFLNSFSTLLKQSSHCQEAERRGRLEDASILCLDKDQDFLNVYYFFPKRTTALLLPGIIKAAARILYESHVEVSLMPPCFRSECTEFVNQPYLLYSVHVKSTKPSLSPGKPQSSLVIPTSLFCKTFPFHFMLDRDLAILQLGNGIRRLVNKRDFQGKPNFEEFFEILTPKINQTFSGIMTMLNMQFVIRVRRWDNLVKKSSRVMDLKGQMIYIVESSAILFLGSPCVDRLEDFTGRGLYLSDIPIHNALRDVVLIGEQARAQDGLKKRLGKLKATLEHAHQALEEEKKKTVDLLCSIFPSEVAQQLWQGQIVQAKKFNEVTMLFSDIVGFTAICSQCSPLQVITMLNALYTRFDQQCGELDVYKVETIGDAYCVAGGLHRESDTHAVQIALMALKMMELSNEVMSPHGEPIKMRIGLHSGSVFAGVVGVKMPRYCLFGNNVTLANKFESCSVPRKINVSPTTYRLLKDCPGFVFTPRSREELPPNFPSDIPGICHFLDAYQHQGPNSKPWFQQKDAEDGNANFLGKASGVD
T1 sequence (P20595 1-619): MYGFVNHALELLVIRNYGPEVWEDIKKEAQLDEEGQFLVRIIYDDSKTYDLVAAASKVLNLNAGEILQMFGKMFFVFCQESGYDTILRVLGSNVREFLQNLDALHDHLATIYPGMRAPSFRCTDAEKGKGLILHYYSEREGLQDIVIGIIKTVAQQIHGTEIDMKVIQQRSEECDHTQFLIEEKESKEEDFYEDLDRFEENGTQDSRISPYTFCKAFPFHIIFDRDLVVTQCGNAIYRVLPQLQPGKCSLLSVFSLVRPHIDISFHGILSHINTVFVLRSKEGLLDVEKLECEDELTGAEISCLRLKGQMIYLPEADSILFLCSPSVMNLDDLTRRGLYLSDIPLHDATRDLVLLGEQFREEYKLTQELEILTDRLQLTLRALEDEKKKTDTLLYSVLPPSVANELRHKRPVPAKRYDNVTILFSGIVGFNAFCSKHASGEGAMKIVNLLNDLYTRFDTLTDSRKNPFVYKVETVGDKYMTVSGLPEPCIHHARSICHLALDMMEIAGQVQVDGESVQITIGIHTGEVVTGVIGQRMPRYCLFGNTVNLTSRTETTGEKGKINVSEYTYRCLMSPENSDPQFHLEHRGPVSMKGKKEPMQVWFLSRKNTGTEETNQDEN
Method in brief: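 Whole-cell reporter assay with recombinant guanylate cyclase; endpoint = minimal effective concentration.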

[3] = male, Wistar, rat, plasma, iv, read-out: MRT

| Compound | AUCnorm [1] [kg·h/L] | CLblood [1] [mL/min/kg] | half-life ([1]; male, Wistar, rat, plasma, iv) [h] | MRT [1, 3] [h] | MEC (minimal effective concentration) [2] [µM] | MRT [1] [h] | t1/2 [1] [h] |
| --- | --- | --- | --- | --- | --- | --- | --- |
| Cc1nc2c(OCc3c(F)cccc3F)cccn2c1C(=O)NC(CN)CCCC(F)(F)F (racemic) [Example 4, rac-N-(1-amino-6,6,6-trifluorohexan-2-yl)-8-[(2,6-difluorobenzyl)oxy]-2-methylimidazo[1,2-a]pyridine-3-carboxamide] | 0.58 | 27.8 | 5.2 | 6.7 | – | – | – |
| CCCC(C)(N)CNC(=O)c1c(C)nc2c(OCc3cccc(F)c3F)cc(C)cn12 (racemic) [Example 303, rac-N-(2-amino-2-methylpentyl)-8-[(2,3-difluorobenzyl)oxy]-2,6-dimethylimidazo[1,2-a]pyridine-3-carboxamide] | 0.26 | 45.7 | 5.7 | 8.2 | 0.20 | – | – |
| Cc1nc2c(OCc3c(F)cccc3F)cc(Cl)cn2c1C(=O)NCC(N)C(C)C (single isomer, unassigned) [Example 211, ent-N-(2-Amino-3-methylbutyl)-6-chloro-8-[(2,6-difluorobenzyl)oxy]-2-methylimidazo[1,2-a]-pyridine-3-carboxamide] | 0.78 | 17.8 | 4.8 | 6.6 | 0.30 | – | – |
| Cc1cc(OCc2c(F)cccc2F)c2nc(C)c(C(=O)NCC(N)C(C)C)n2c1 (single isomer, unassigned) [Example 223, ent-N-(2-Amino-3-methylbutyl)-8-[(2,6-difluorobenzyl)oxy]-2,6-dimethylimidazo[1,2-a]pyridine-3-carboxamide] | 0.87 | 18.2 | 4.8 | 6.1 | 0.30 | – | – |
| CCCC(C)(N)CNC(=O)c1c(C)nc2c(OCc3c(F)ccc(F)c3F)cc(C)cn12 (single isomer, unassigned) [Example 295, ent-N-(2-amino-2-methylpentyl)-2,6-dimethyl-8-[(2,3,6-trifluorobenzyl)oxy]imidazo[1,2-a]pyridine-3-carboxamide] | 0.56 | 20.5 | 6.6 | 8.8 | 0.10 | – | – |
| CCC(C)(N)CNC(=O)c1c(C)nc2c(OCc3c(F)ccc(F)c3F)cc(C)cn12 (single isomer, unassigned; enantiomer a) [Example 274, ent-N-(2-Amino-2-methylbutyl)-2,6-dimethyl-8-[(2,3,6-trifluorobenzyl)oxy]imidazo[1,2-a]-pyridine-3-carboxamide (Enantiomer A)] | 1.29 | 11.5 | 5.8 | 8.4 | 0.10 | – | – |

The next lines start with the values.

| AUCnorm [1] [kg·h/L] | CLblood [1] [mL/min/kg] | half-life ([1]; male, Wistar, rat, plasma, iv) [h] | MRT [1, 3] [h] | MEC (minimal effective concentration) [2] [µM] | MRT [1] [h] | t1/2 [1] [h] | Compound |
| --- | --- | --- | --- | --- | --- | --- | --- |
| 0.73 | 23.5 | 4.5 | 5.7 | 0.3 | – | – | Cc1cc(OCc2c(F)cccc2F)c2nc(C)c(C(=O)NCC(C)(N)CF)n2c1 (racemic) [Example 282, rac-N-(2-amino-3-fluoro-2-methylpropyl)-8-[(2,6-difluorobenzyl)oxy]-2,6-dimethylimidazo[1,2-a]pyridine-3-carboxamide Formate] |
| 2.06 | 8 | 16.8 | 24.4 | 0.10 | – | – | CCC(C)(N)CNC(=O)c1c(C)nc2c(OCc3c(F)cccc3F)cc(Cl)cn12 (single isomer, unassigned) [Example 194, ent-N-(2-Amino-2-methylbutyl)-6-chloro-8-[(2,6-difluorobenzyl)oxy]-2-methylimidazo[1,2-a]-pyridine-3-carboxamide] |
| 0.34 | 37.8 | – | – | 0.10 | 9.4 | 6.2 | CCCC(C)(N)CNC(=O)c1c(C)nc2c(OCc3c(F)ccc(F)c3F)cc(C)cn12 (single isomer, unassigned) [Example 304, ent-N-(2-amino-2-methylpentyl)-2,6-dimethyl-8-[(2,3,6-trifluorobenzyl)oxy]imidazo[1,2-a]pyridine-3-carboxamide] |
| 0.19 | 51.2 | 3.8 | 4.7 | 0.10 | – | – | Cc1cc(OCc2c(F)cccc2F)c2nc(C)c(C(=O)NCC(C)(N)CCC(F)(F)F)n2c1 (single isomer, unassigned) [Example 408, ent-N-(2-amino-5,5,5-trifluoro-2-methylpentyl)-8-[(2,6-difluorobenzyl)oxy]-2,6-dimethylimidazo[1,2-a]pyridine-3-carboxamide] |
| 0.28 | 35.8 | – | – | 0.03 | 7.4 | 5.8 | Cc1cc(OCc2c(F)cccc2F)c2nc(C)c(C(=O)NCC(C)(N)CCC(F)(F)F)n2c1 (single isomer, unassigned) [Example 409, ent-N-(2-amino-5,5,5-trifluoro-2-methylpentyl)-8-[(2,6-difluorobenzyl)oxy]-2,6-dimethylimidazo[1,2-a]pyridine-3-carboxamide] |
| 0.21 | 46.2 | 4.3 | – | 0.10 | 5.4 | – | Cc1cc(OCc2c(F)ccc(F)c2F)c2nc(C)c(C(=O)NCC(C)(N)CCC(F)(F)F)n2c1 (single isomer, unassigned) [Example 410, ent-N-(2-amino-5,5,5-trifluoro-2-methylpentyl)-2,6-dimethyl-8-[(2,3,6-trifluorobenzyl)oxy]imidazo[1,2-a]pyridine-3-carboxamide] |
| 0.41 | 25.3 | – | – | 0.03 | 11.2 | 8.2 | Cc1cc(OCc2c(F)ccc(F)c2F)c2nc(C)c(C(=O)NCC(C)(N)CCC(F)(F)F)n2c1 (single isomer, unassigned) [Example 411, ent-N-(2-amino-5,5,5-trifluoro-2-methylpentyl)-2,6-dimethyl-8-[(2,3,6-trifluorobenzyl)oxy]imidazo[1,2-a]pyridine-3-carboxamide] |
